We go through two compounds from publication PMC4118831, “Interaction of serum amyloid P component with hexanoyl bis(D-proline) (CPHPC)” (Acta Crystallographica Section D: Biological Crystallography, 2014).

The target of this assay is T1, serum amyloid P component (SAP) (Homo sapiens, UniProt P02743).
T1 construct: gene APCS; pentamer purified from serum; 204-residue subunits
Kind of assay: ITC; crystal structure. In kind it is binding. In general terms: ITC needs no label: the signal is the heat of the interaction.

Molecules are shown by their SMILES. pKd: −log10 of the molar value.

T1 sequence (P02743 20-223): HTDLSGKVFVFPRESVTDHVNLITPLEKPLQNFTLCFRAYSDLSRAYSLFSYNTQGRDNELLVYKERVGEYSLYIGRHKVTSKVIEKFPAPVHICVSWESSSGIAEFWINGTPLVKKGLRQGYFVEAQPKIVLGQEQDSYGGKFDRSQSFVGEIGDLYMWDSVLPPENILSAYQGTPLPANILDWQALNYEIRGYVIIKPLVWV

As usually defined, the pKd is the negative decadic logarithm of the Kd, by convention in mol/L. The low end stands for a high Kd, the high end for a low Kd. In the case of `CC(=O)N1CCC[C@H]1C(=O)O` [N-acetyl-L-proline], the pKd was 3.49. Turning to `CC(=O)N1CCC[C@@H]1C(=O)O` [N-acetyl-D-proline], the pKd was 4.73. This pKd is 1.24 log units higher than that of the compound before.
